Source: US6960566B1, “Compositions and methods for treatment of cancer” (The Wister Institute of Anatomy and Biology, priority 1998, dated 2005)
Entries after “also recorded” stand apart in the source; their conditions may differ.

Key:
MAb NS19-9 [1] = test: ELISA, direct binding of MAb NS19-9 to peptide
[2] = tested on: neutrophil influx into chemically irritated peritoneum; test: Neutrophil recruitment in Zymosan-induced peritonitis (acute inflammation model in vivo); details: mice, Zymosan i.p.
Protocol: The accumulation of neutrophils is a characteristic feature of acute and chronic inflammatory disease, and early steps in the recruitment of these cells to the site of inflammation depends upon E-selectin-mediated interaction. Thus, inhibition of neutrophil recruitment in vivo is an important test of the ability of potential therapeutic agents to inhibit E-selectin-mediated events. […] Because SA-Le^a binds to E-selectin, the adhesion-blocking ability of an SA-Le^a peptido-mimetic was measured in a neutrophil-recruitment in vivo model of acute inflammation.
The bioactivity of the 12-mer peptide SEQ ID NO: 1 which mimics the SA-Le^a carbohydrate structure was determined by administering Zymosan™ intraperitoneally (i.p.) into mice [see, e.g., Martens et al. 1995, J. Biol. Chem. 270:21129-21136; Rao et al. 1994, J. Biol. Chem. 269:19663-19666], followed three hours later by an intravenous (i.v.) injection of peptide SEQ ID NO: 1 (1 mg). Neutrophils were harvested and counted one hour later.
Derm. 78:206-209]. […] The reduction in enzyme activity is apparently due to reduction in neutrophil recruitment in mice treated with peptide mimicking E-selectin ligand SA-Le^a. This peptide inhibits E-selectin function in vivo.

MAb NS19-9 [3] = test: Competition ELISA: peptide inhibition of MAb NS19-9 binding to solid phase SA-Le^a-PAA
Protocol: The peptide competition/inhibition assays referred to throughout the following examples are performed as follows: Test peptides at concentrations ranging from 10 nM to 1 mM were preincubated with 100 μl of the MAb NS19-9 (5 μg/ml) diluted in 10% […] free horse serum/PBS at room temperature. Fifty μl of preincubated inhibition complex antibody-peptide is added to each well of 96-well plate and incubated at 30-37° C. for 1 hour. After 1 hour of incubation, MAb/peptide complex mixtures were transferred to wells precoated with a constant amount of neoglycoprotein containing coupled multivalent carbohydrate determinant (SA-Le^a-polyacrylamide matrix (SA-LeX-PAA or LeY-PAA) (5 μg/well) and allowed to bind for 1 hour followed by blocking with 10% γ-globulin-free horse serum for 2 hours at room temperature. Wells were washed with 100 μl PBS four times. Goat anti-mouse immunoglobulin G conjugated to horse radish peroxidase (Boehringer-Manheim, Indianapolis, Ind.) was diluted 1000-fold with 10% γ-globulin free horse serum/PBS and 100 μl was added in each well and incubated at 30-37° C. for 1 hour and washed with 100 μl PBS five times. […] The developed blue color was read at 450 nm after stopping the reaction with 100 μl 1M phosphoric acid. Fifty % inhibitory concentration (IC50) was calculated by non-linear least-squares regression to a four-parameter logistic equation. […]

BR15-6A MAb = test: ELISA, binding of MAb BR15-6A to solid phase coated peptide; details: solid phase coated peptide at 1 nM to 1 mM
Protocol: Peptide SEQ ID NO: 99 from the family of LeY-mimicking peptides was selected because it contained a consensus motif which appeared in multiple bacterial isolates after five rounds of panning with the BR15-6A MAb. This peptide was chemically synthesized and its binding to BR15-6A MAb was evaluated. […] It likely represents a conformational mimic of the LeY structure. This peptide is further evaluated in competition assays with native LeY containing neoglycoprotein and LeY-specific MAbs BR15-6A and BR55-2.

MAb BR15-6A = test: Inhibition of MAb BR15-6A binding to LeY carbohydrate
Protocol: The peptide competition/inhibition assays referred to throughout the following examples are performed as follows: Test peptides at concentrations ranging from 10 nM to 1 mM were preincubated with 100 μl of the MAb NS19-9 (5 μg/ml) diluted in 10% […] free horse serum/PBS at room temperature. Fifty μl of preincubated inhibition complex antibody-peptide is added to each well of 96-well plate and incubated at 30-37° C. for 1 hour. […] The developed blue color was read at 450 nm after stopping the reaction with 100 μl 1M phosphoric acid. Fifty % inhibitory concentration (IC50) was calculated by non-linear least-squares regression to a four-parameter logistic equation. […]
Peptide SEQ ID NO: 99 from the family of LeY-mimicking peptides was selected because it contained a consensus motif which appeared in multiple bacterial isolates after five rounds of panning with the BR15-6A MAb. This peptide was chemically synthesized and its binding to BR15-6A MAb was evaluated. […] This peptide is further evaluated in competition assays with native LeY containing neoglycoprotein and LeY-specific MAbs BR15-6A and BR55-2.

BR55-2 [4] = test: Competition of peptide with LeY for BR55-2 binding
BR55-2 [5] = test: ELISA, binding of MAb BR55-2 to monovalent peptide; details: series of ELISA assays
Excerpt: The Trp residue occupies a volume associated with the Fuca 1,3 moiety, and the Leu residue occupies the volume of the β Gal moiety and has the hydrophobic interaction of β Gal. The Tyr residue occupies a position not associated with LeY binding to B3. The computer modeling disclosed that the low energy binding mode conformation adopts a turn region similar to that observed for the YPY motif in binding to ConA [Kaur et al., 1997, J. Biol. Chem. 272:5539-5543]. This conformation lends itself to the Tyr residue of the peptide to potentially interact with several residues in CDR2 of the heavy chain of B3 that include Asp H53, Ser H52, Ser H55, or Ser H56.

MAb NS19-9 [6] = test: competition ELISA; peptide preincubated with MAb NS19-9, free MAb binding to SA-Le^a-PAA

DLWDWVVGKPAG [SEQ ID NO: 1]
binding of MAb NS19-9 to peptide (in words) (MAb NS19-9 [1]): dose-dependent binding
myeloperoxidase activity in collected cells (in words) ([2]; 1 mg peptide i.v.): Significant reduction of enzymatic activity
number of neutrophils in peritoneal lavage fluids (in words) ([2]; 1 mg peptide i.v. three hours later, harvest one hour later): reduced the number of neutrophils; also recorded: reduction of neutrophil influx; also recorded: partially inhibit neutrophil recruitment
blocking of MAb NS19-9 binding to SA-Le^a-PAA (in words) (MAb NS19-9 [3]): blocked the binding of MAb NS 19-9
IC50 (MAb NS19-9 [3]; MAb NS19-9 5 μg/ml, solid phase SA-Le^a-PAA, read-out: IC50, blocking of MAb NS19-9 binding to SA-Le^a-PAA): 700 µM

DEVRPDLISTEE (peptido-mimetic of a Lewis antigen) [SEQ ID NO: 99]
binding of MAb BR15-6A to peptide (in words) (BR15-6A MAb): Dose-dependent binding
inhibition of MAb BR15-6A binding to LeY (in words) (MAb BR15-6A): inhibit MAb BR15-6A binding

FSLLW (peptido-mimetic of a Lewis antigen) [SEQ ID NO: 114]
competition with LeY for BR55-2 binding (in words) (BR55-2 [4]): competes with LeY for BR55-2 binding

APWLYGPA (peptido-mimetic of a Lewis antigen) [SEQ ID NO: 121]
binding of BR55-2 to monovalent peptide (in words) (BR55-2 [5]): does not bind

DLWDWVVGKPAG [peptide …]
IC50 (MAb NS19-9 [6]): 700 µM
